Source: the supplement of paper PMC10307832

Columns and labels:
Assay in all cases: relative viability (nuclei count vs DMSO), 5 days (fraction); higher = more cells survive
COR-L 105 = system: COR-L 105
Outline: (§1)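 Each reported value is a median over duplicate plates. It expresses relative viability: treated-well nuclei count divided by vehicle-well nuclei count. Lung cancer cell lines in 1536-well plates were dosed by pin tool a day after seeding, alone with one drug or with a fixed anchor-drug dose plus five library-drug doses (not always all listed) in √10 steps, and nuclei were counted after 5 days.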

HCC-78 = system: HCC-78
Outline: as §1

LCLC-103H = system: LCLC-103H
Outline: as §1

NCI-H2085 = system: NCI-H2085
Outline: as §1

HCC-15 = system: HCC-15
Outline: as §1

EPLC-272H = system: EPLC-272H
Outline: as §1

NCI-H358 = system: NCI-H358
Outline: as §1

COR-L23 = system: COR-L23
Outline: as §1

NCI-H1944 = system: NCI-H1944
Outline: as §1

NCI-H2405 = system: NCI-H2405
Outline: as §1

NCI-H1437 = system: NCI-H1437
Outline: as §1

HARA = system: HARA
Outline: as §1

HCC-366 = system: HCC-366
Outline: as §1

SK-LU-1 = system: SK-LU-1
Outline: as §1

NCI-H1975 = system: NCI-H1975
Outline: as §1

NCI-H1395 = system: NCI-H1395
Outline: as §1

HCC-44 = system: HCC-44
Outline: as §1

UMC-11 = system: UMC-11
Outline: as §1

NCI-H1792 = system: NCI-H1792
Outline: as §1

NCI-H2023 = system: NCI-H2023
Outline: as §1

NCI-H661 = system: NCI-H661
Outline: as §1

HCC-827 = system: HCC-827
Outline: as §1

With `Cc1cnc(-c2cnc(NCCNc3ccc(C#N)cn3)nc2-c2ccc(Cl)cc2Cl)[nH]1` + Nc1nc2[nH]cc(CCc3ccc(C(=O)N[C@@H](CCC(=O)O)C(=O)O)cc3)c2c(=O)[nH]1 [Pemetrexed] (partner 0.2 µM) the relative viability (COR-L 105; first compound 0.08 µM) was 1.25, the relative viability (COR-L 105; first compound 0.253 µM) was 1.06 and the relative viability (COR-L 105; first compound 0.8 µM) was 0.903. The relative viability (COR-L 105; first compound 2.53 µM) was 0.832, the relative viability (HCC-78; first compound 0.08 µM) was 0.893 and the relative viability (HCC-78; first compound 0.253 µM) was 0.839. For the same compound, the relative viability (HCC-78; first compound 0.8 µM) was 0.897, the relative viability (HCC-78; first compound 2.53 µM) was 0.938 and the relative viability (LCLC-103H; first compound 0.08 µM) was 0.49. The relative viability (LCLC-103H; first compound 0.253 µM) was 0.43, the relative viability (LCLC-103H; first compound 0.8 µM) was 0.453 and the relative viability (LCLC-103H; first compound 2.53 µM) was 0.418. It also gave a relative viability (NCI-H2085; first compound 0.08 µM) of 1.01, a relative viability (NCI-H2085; first compound 0.253 µM) of 0.852 and a relative viability (NCI-H2085; first compound 0.8 µM) of 0.885. For the same compound, the relative viability (NCI-H2085; first compound 2.53 µM) was 0.955, the relative viability (HCC-15; first compound 0.08 µM) was 0.207 and the relative viability (HCC-15; first compound 0.253 µM) was 0.219. The relative viability (HCC-15; first compound 0.8 µM) was 0.216, the relative viability (HCC-15; first compound 2.53 µM) was 0.194 and the relative viability (EPLC-272H; first compound 0.08 µM) was 0.388. The relative viability (EPLC-272H; first compound 0.253 µM) was 0.293, the relative viability (EPLC-272H; first compound 0.8 µM) was 0.344 and the relative viability (EPLC-272H; first compound 2.53 µM) was 0.276. It also gave a relative viability (NCI-H358; first compound 0.08 µM) of 0.168, a relative viability (NCI-H358; first compound 0.253 µM) of 0.182 and a relative viability (NCI-H358; first compound 0.8 µM) of 0.184. For the same compound, the relative viability (NCI-H358; first compound 2.53 µM) was 0.16, the relative viability (COR-L23; first compound 0.08 µM) was 0.191 and the relative viability (COR-L23; first compound 0.253 µM) was 0.19. The relative viability (COR-L23; first compound 0.8 µM) was 0.198, the relative viability (COR-L23; first compound 2.53 µM) was 0.185 and the relative viability (NCI-H1944; first compound 0.08 µM) was 0.604. For the same compound, the relative viability (NCI-H1944; first compound 0.8 µM) was 0.633, the relative viability (NCI-H1944; first compound 2.53 µM) was 0.678 and the relative viability (NCI-H2405; first compound 0.08 µM) was 1.09. It also gave a relative viability (NCI-H2405; first compound 0.253 µM) of 1.06, a relative viability (NCI-H2405; first compound 0.8 µM) of 1.04 and a relative viability (NCI-H2405; first compound 2.53 µM) of 0.468. The relative viability (NCI-H1437; first compound 0.08 µM) was 0.3, the relative viability (NCI-H1437; first compound 0.253 µM) was 0.328 and the relative viability (NCI-H1437; first compound 0.8 µM) was 0.268. For the same compound, the relative viability (NCI-H1437; first compound 2.53 µM) was 0.269, the relative viability (HARA; first compound 0.08 µM) was 0.277 and the relative viability (HARA; first compound 0.253 µM) was 0.207. For the same compound, the relative viability (HARA; first compound 0.8 µM) was 0.255, the relative viability (HARA; first compound 2.53 µM) was 0.235 and the relative viability (HCC-366; first compound 0.08 µM) was 0.161. For the same compound, the relative viability (HCC-366; first compound 0.253 µM) was 0.137, the relative viability (HCC-366; first compound 0.8 µM) was 0.133 and the relative viability (HCC-366; first compound 2.53 µM) was 0.126. The relative viability (SK-LU-1; first compound 0.08 µM) was 0.966, the relative viability (SK-LU-1; first compound 0.253 µM) was 0.97 and the relative viability (SK-LU-1; first compound 0.8 µM) was 0.975. It also gave a relative viability (SK-LU-1; first compound 2.53 µM) of 0.823, a relative viability (NCI-H1975; first compound 0.08 µM) of 0.289 and a relative viability (NCI-H1975; first compound 0.253 µM) of 0.285. The relative viability (NCI-H1975; first compound 0.8 µM) was 0.287, the relative viability (NCI-H1975; first compound 2.53 µM) was 0.242 and the relative viability (NCI-H1395; first compound 0.08 µM) was 0.958. The relative viability (NCI-H1395; first compound 0.253 µM) was 0.823, the relative viability (NCI-H1395; first compound 0.8 µM) was 0.826 and the relative viability (NCI-H1395; first compound 2.53 µM) was 0.756. For the same compound, the relative viability (HCC-44; first compound 0.08 µM) was 0.633, the relative viability (HCC-44; first compound 0.253 µM) was 0.631 and the relative viability (HCC-44; first compound 0.8 µM) was 0.643. It also gave a relative viability (HCC-44; first compound 2.53 µM) of 0.685, a relative viability (UMC-11; first compound 0.08 µM) of 0.867 and a relative viability (UMC-11; first compound 0.253 µM) of 0.772. For the same compound, the relative viability (UMC-11; first compound 0.8 µM) was 0.822, the relative viability (UMC-11; first compound 2.53 µM) was 0.735 and the relative viability (NCI-H1792; first compound 0.08 µM) was 0.946. For the same compound, the relative viability (NCI-H1792; first compound 0.253 µM) was 0.728, the relative viability (NCI-H1792; first compound 0.8 µM) was 0.775 and the relative viability (NCI-H1792; first compound 2.53 µM) was 0.724. It also gave a relative viability (NCI-H2023; first compound 0.08 µM) of 0.283, a relative viability (NCI-H2023; first compound 0.253 µM) of 0.229 and a relative viability (NCI-H2023; first compound 0.8 µM) of 0.199. It also gave a relative viability (NCI-H2023; first compound 2.53 µM) of 0.261, a relative viability (NCI-H661; first compound 0.08 µM) of 0.876 and a relative viability (NCI-H661; first compound 0.253 µM) of 0.887. The relative viability (NCI-H661; first compound 0.8 µM) was 0.738, the relative viability (NCI-H661; first compound 2.53 µM) was 0.649 and the relative viability (HCC-827; first compound 0.08 µM) was 0.27. For the same compound, the relative viability (HCC-827; first compound 0.253 µM) was 0.267, the relative viability (HCC-827; first compound 0.8 µM) was 0.245 and the relative viability (HCC-827; first compound 2.53 µM) was 0.269.
